The record followed here is US20230159989A1, “MULTIPLEXED FLUORESCENCE IN SITU HYBRIDIZATION METHOD CAPABLE OF RAPID DETECTION OF BILLIONS OF TARGETS” (Kanvas Biosciences, Inc., priority 2021, published 2023).

Bounds are passed on as bounds.

This experiment relates to carbapenem-resistant K. pneumoniae. The experiment is described as follows: HiPR-FISH chip antimicrobial susceptibility / MIC by growth imaging at several meropenem concentrations. The following applies: Klebsiella pneumoniae, several hours growth on a HiPR-FISH chip, in agreement with Clinical and Laboratory Standards Institute criteria, read-out: meropenem concentration beyond which the strain still grows (* denotes MIC). In kind it is cell-based.

In the case of `C[C@@H](O)[C@H]1C(=O)N2C(C(=O)O)=C(S[C@@H]3CN[C@H](C(=O)N(C)C)C3)[C@H](C)[C@H]12` [meropenem], the MIC is > 2 µg/mL.
